Legend:
[1] = Powder dissolution rate test; type: physicochemical; details: 50 rpm, samples equivalent to 10 mg of curcumin
Experimental: Powder dissolution experiments were conducted in pH 2.0 and pH 4.5 buffer solutions (containing 0.5% Tween 80) at a temperature of 37°C and a rotation speed of 50 rpm. The commercially available curcumin crystals and the powder of the curcumin-L-carnitine cocrystal from Example 3 were sieved through a 100-mesh screen to eliminate the effect of particle size on dissolution. Samples equivalent to 10 mg of curcumin were placed into the sample vessels of the dissolution apparatus, stirred, and samples were taken at 3, 5, 10, 15, 20, 30, 45, 60, 90, and 120 minutes. Concentrations were determined using HPLC. In the pH 2.0 buffer solution, the dissolution of the cocrystal at 3 minutes was about 7 times that of curcumin itself. In the pH 4.5 buffer solution, the dissolution of the cocrystal at 3 minutes was about 8 times that of curcumin itself.

[2] = Bioavailability test (plasma pharmacokinetics after intragastric administration); parameters: species or system Male SD rats; details: rat, in vivo, 200 mg/kg
Experimental: Male SD rats (weighing 200-300 g) kept under good feeding conditions were used for the experiment. A total of 12 rats were used, evenly divided into 2 groups of 6 rats each. Commercially available curcumin crystals and the cocrystal obtained in Example 3 were uniformly dispersed in soybean oil and administered intragastrically as a suspension. The dosage was 200 mg/kg based on curcumin content. Blood samples (1 mL per time point) were collected from the orbital venous plexus at 20 minutes, 40 minutes, 1 hour, 1.5 hours, 2.5 hours, 4 hours, 6 hours, and 8 hours after administration. Plasma was separated by centrifugation within 0.5 hours of blood collection at 10,000 rpm for 5 minutes. 100 µL of plasma was precisely transferred, added with 50 µL of enzyme buffer solution, incubated at 37°C for 60 min, then added with 0.45 mL of methanol (containing 0.2% acetic acid), vortexed for 10 min, centrifuged at 14000 rpm for 3 min, and the supernatant was collected for HPLC analysis. Table 4. Pharmacokinetic parameters for commercially available curcumin crystals and curcumin-L-carnitine cocrystal.

dissolution of the cocrystal at 3 minutes relative to curcumin itself ([1]; pH 2.0 buffer solution containing 0.5% Tween 80, 37°C): about 7 times | dissolution of the cocrystal at 3 minutes relative to curcumin itself ([1]; pH 4.5 buffer solution containing 0.5% Tween 80, 37°C): about 8 times | maximum plasma concentration of curcumin relative to commercially available curcumin crystals [2]: 10.7 times | Cmax ([2]; po): 727.8 ng/mL | Tmax ([2]; po): 20 min | AUC0-8h ([2]; po, 8 h): 692.5 ng·h/mL
Substance: cocrystal of curcumin and L-carnitine [Curcumin-L-carnitine cocrystal]
